The target in test [1] is T1, B1R receptor of the rat (rB1R) (Rattus norvegicus, UniProt P97583).
T1 construct: expressed in transfected cells; host or cells: CHO K1 cells, stably transfected
T1 sequence (P97583 1-337): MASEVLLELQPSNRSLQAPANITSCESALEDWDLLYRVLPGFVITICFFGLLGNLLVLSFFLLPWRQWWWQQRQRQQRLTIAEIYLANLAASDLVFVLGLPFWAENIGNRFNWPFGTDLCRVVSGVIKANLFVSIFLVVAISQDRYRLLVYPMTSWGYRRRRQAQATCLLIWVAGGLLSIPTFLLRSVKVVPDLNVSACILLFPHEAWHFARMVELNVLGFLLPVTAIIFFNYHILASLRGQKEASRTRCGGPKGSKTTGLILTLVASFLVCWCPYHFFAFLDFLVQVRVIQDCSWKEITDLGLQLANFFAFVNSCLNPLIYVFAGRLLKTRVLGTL
The experiment in a line: FLIPR Ca2+ functional study on bradykinin receptor 1, rB1R cells (CHO K1). To be noted: 10 μM test substance, CHO K1 cells with rat B1R, agonist Des-Arg9-bradykinin at EC80; for inhibition at 10 µM: read-out: B1R antagonism, rat [10 μM] % inhibition. The format is cell-based. An outline of the steps:
(§1)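 Stably transfected CHO K1 cells loaded with Fluo-4; FLIPR Ca2+ fluorescence (ex 488/em 540 nm, peak counts). Compounds (10 μM, or concentration series for IC50) preincubated 10–20 min, then EC80 agonist added (human: Lys-Des-Arg9-bradykinin; rat: Des-Arg9-bradykinin); % inhibition versus maximum achievable, n=2–3, N≥2.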

In test [2] the target is T2, human B1R receptor (hB1R) (Homo sapiens, UniProt P46663).
T2 construct: expressed in transfected cells; host or cells: CHO K1 cells, stably transfected
T2 sequence (P46663 1-353): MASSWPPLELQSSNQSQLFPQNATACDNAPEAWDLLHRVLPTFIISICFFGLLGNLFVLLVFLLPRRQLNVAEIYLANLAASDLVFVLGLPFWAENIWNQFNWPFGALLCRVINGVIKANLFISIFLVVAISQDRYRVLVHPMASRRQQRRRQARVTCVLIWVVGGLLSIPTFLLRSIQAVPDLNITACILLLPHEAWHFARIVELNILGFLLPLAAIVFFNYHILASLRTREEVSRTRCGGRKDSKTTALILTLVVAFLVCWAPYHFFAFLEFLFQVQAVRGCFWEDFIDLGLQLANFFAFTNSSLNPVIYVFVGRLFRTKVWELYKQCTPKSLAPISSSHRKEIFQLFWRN
The experiment in a line: FLIPR Ca2+ functional study on bradykinin receptor 1, hB1R cells (CHO K1). In kind it is cell-based. Conditions: CHO K1 cells with human B1R, agonist Lys-Des-Arg9-bradykinin at EC80; for inhibition at 10 µM: CHO-K1, 10 μM test substance, read-out: B1R antagonism, human [10 μM] % inhibition; for B1R antagonism, human [10 μM] % inhibition: 10 μM test substance. An outline of the steps:
as §1

The term inhibition denotes the change of the read-out against control, counted positive when it falls. For the compound `COc1cc(C)c(S(=O)(=O)N2Cc3ccc(C(=O)N4CCC5(CC4)CCN(c4ccncc4)CC5)cc3C2)c(C)c1` [Compound G-67, [2-[(4-Methoxy-2,6-dimethyl-phenyl)sulfonyl]-2,3-dihydro-1H-isoindol-5-yl]-(9-pyridin-4-yl-3,9-diazaspiro[5.5]undecan-3-yl)-methanone], the inhibition at 10 µM worked out at 101% in test [1] and 100% in test [2].

In the case of `O=C(NCc1ccccc1Cl)N1CCc2ccc(C(=O)N3CCC4(CC3)CCN(c3ccncc3)CC4)cc2C1` [Compound G-45, N-(2-Chlorobenzyl)-7-(9-(pyridin-4-yl)-3,9-diazaspiro[5.5]undecane-3-carbonyl)-3,4-dihydroisoquinoline-2(1H)-carboxamide], the inhibition at 10 µM in test [1] and in test [2] was 97% throughout.

With `O=C(c1ccc2c(c1)CN(C(=O)c1cc3c(s1)CCC3)CC2)N1CCC2(CC1)CCN(c1ccncc1)CC2` [Compound G-60, (5,6-Dihydro-4H-cyclopenta[b]thiophen-2-yl)(7-(9-(pyridin-4-yl)-3,9-diazaspiro[5.5]undecane-3-carbonyl)-3,4-dihydroisoquinolin-2(1H)-yl)methanone], the inhibition at 10 µM in test [1] worked out at 91%; in test [2], 98%.

For `Cc1cc(S(=O)(=O)N2CCc3ccc(C(=O)N4CCC5(CC4)CCN(c4ccncc4)CC5)cc32)c(C)cc1Cl` [G_CC-013, (1-(4-Chloro-2,5-dimethylphenylsulfonyl)indolin-6-yl)(9-(pyridin-4-yl)-3,9-diazaspiro[5.5]undecan-3-yl)methanone], the results for the inhibition at 10 µM in test [1] and in test [2] were 99% and 87%, respectively.

For the compound `COc1cc(C)c(S(=O)(=O)N2CCCc3ccc(CC(=O)N4CCC5(CCC(Oc6ccncc6)CC5)CC4)cc32)c(C)c1` [Compound G-30, 2-(1-(4-Methoxy-2,6-dimethylphenylsulfonyl)-1,2,3,4-tetrahydroquinolin-7-yl)-1-(9-(pyridin-4-yloxy)-3-azaspiro[5.5]undecan-3-yl)ethanone], the inhibition at 10 µM in test [1] came out at 98%; in test [2], 46%.

In the case of `COc1cc(C)c(S(=O)(=O)N2CCOc3ccc(CC(=O)N4CCC5(CC4)CCN(c4ccncc4)CC5)cc32)c(C)c1` [Compound G-19, 2-(4-(4-Methoxy-2,6-dimethylphenylsulfonyl)-3,4-dihydro-2H-benzo[b][1,4]oxazin-6-yl)-1-(9-(pyridin-4-yl)-3,9-diazaspiro[5.5]undecan-3-yl)ethanone], the inhibition at 10 µM in test [1] and in test [2] was 100% throughout.

For `COc1cc(C)c(S(=O)(=O)N2CCCc3ccc(CC(=O)N4CCC5(CC4)CCN(c4ccncc4)CC5)cc32)c(C)c1` [G_CC-055, 2-[1-[(4-Methoxy-2,6-dimethyl-phenyl)sulfonyl]-1,2,3,4-tetrahydro-quinolin-7-yl]-1-(3-pyridin-4-yl-3,9-diazaspiro[5.5]undecan-9-yl)-ethanone], in test [1], the “B1R antagonism, rat [10 μM] % inhibition” value is recorded as 98%. In test [2], the “B1R antagonism, human [10 μM] % inhibition” value stood at 96%.

Take `COc1cc(C)c(S(=O)(=O)N2CCCc3ccc(C(=O)N4CCC5(CC4)CCN(c4ccncc4)CC5)cc32)c(C)c1` [G_CC-056, [1-[(4-Methoxy-2,6-dimethyl-phenyl)sulfonyl]-1,2,3,4-tetrahydro-quinolin-7-yl]-(3-pyridin-4-yl-3,9-diazaspiro[5.5]undecan-9-yl)-methanone]: the “B1R antagonism, rat [10 μM] % inhibition” value in test [1] came to 100%. In test [2], the “B1R antagonism, human [10 μM] % inhibition” value is 98%.

Consider `COc1cc(C)c(S(=O)(=O)N2CCCc3ccc(CC(=O)N4CCC5(CC4)CC(c4ccncc4)=NO5)cc32)c(C)c1` [Compound G-33, 2-(1-(4-Methoxy-2,6-dimethylphenylsulfonyl)-1,2,3,4-tetrahydroquinolin-7-yl)-1-(3-(pyridin-4-yl)-1-oxa-2,8-diazaspiro[4.5]dec-2-en-8-yl)ethanone], for which the inhibition at 10 µM in test [1] turned out to be 73%; in test [2], 65%.

In the case of `O=C(Cc1ccc2c(c1)N(S(=O)(=O)c1cccc3ccccc13)CCC2)N1CCC2(CCN(c3ccncc3)C2)C1` (centres unmarked) [Compound G-53, 2-(1-(Naphthalin-1-ylsulfonyl)-1,2,3,4-tetrahydroquinolin-7-yl)-1-(7-(pyridin-4-yl)-2,7-diazaspiro[4.4]nonan-2-yl)ethanone], the inhibition at 10 µM worked out at 105% in test [1] and 95% in test [2].

For `O=C(Cc1ccc2c(c1)N(S(=O)(=O)c1ccccc1C(F)(F)F)CCC2)N1CCC2(CCN(c3ccncc3)CC2)C1` [Compound G-57, 1-(8-(Pyridin-4-yl)-2,8-diazaspiro[4.5]decan-2-yl)-2-(1-(2-(trifluoromethyl)phenylsulfonyl)-1,2,3,4-tetrahydroquinolin-7-yl)ethanone], the values for the inhibition at 10 µM in test [1] and in test [2] were 101% and 100%, respectively.

As to `O=C(Cc1ccc2c(c1)N(S(=O)(=O)c1cccc3ccccc13)CCC2)N1CCC2(CCN(c3ccncc3)CC2)C1` [Compound G-52, 2-(1-(Naphthalin-1-ylsulfonyl)-1,2,3,4-tetrahydroquinolin-7-yl)-1-(8-(pyridin-4-yl)-2,8-diazaspiro[4.5]decan-2-yl)ethanone], the inhibition at 10 µM in test [1] came to 106%; in test [2], 98%.

For the compound `COc1cc(C)c(S(=O)(=O)N2CCc3sc(C(=O)N4CCC5(CC4)CCN(c4ccncc4)CC5)cc3C2)c(C)c1` [Compound G-14, (5-(4-Methoxy-2,6-dimethylphenylsulfonyl)-4,5,6,7-tetrahydrothieno[3,2-c]pyridin-2-yl)(9-(pyridin-4-yl)-3,9-diazaspiro[5.5]undecan-3-yl)methanone], the inhibition at 10 µM in test [1] and in test [2] was 97% throughout.

`O=C(c1cc2c(s1)CCN(C(=O)c1ccccc1Cl)C2)N1CCC2(CC1)CCN(c1ccncc1)CC2` [Compound G-15, (5-(2-Chlorobenzoyl)-4,5,6,7-tetrahydrothieno[3,2-c]pyridin-2-yl)(9-(pyridin-4-yl)-3,9-diazaspiro[5.5]undecan-3-yl)methanone]: the inhibition at 10 µM in test [1] was 81%; in test [2], 66%.

Consider `COc1cc(C)c(S(=O)(=O)N2CCc3ccc(C(=O)N4CCC5(CC4)CCN(c4ccncc4)CC5)cc3C2)c(C)c1` [Compound G-04, (2-(4-Methoxy-2,6-dimethylphenylsulfonyl)-1,2,3,4-tetrahydroisoquinolin-7-yl)(9-(pyridin-4-yl)-3,9-diazaspiro[5.5]undecan-3-yl)methanone], for which the inhibition at 10 µM stood at 99% in test [1] and 97% in test [2].

For `Cc1cccc(Cl)c1S(=O)(=O)N1CCCc2ccc(CC(=O)N3CCC4(CC3)CCN(c3ccncc3)CC4)cc21` [Compound G-18, 2-(1-(2-Chloro-6-methylphenylsulfonyl)-1,2,3,4-tetrahydroquinolin-7-yl)-1-(9-(pyridin-4-yl)-3,9-diazaspiro[5.5]undecan-3-yl)ethanone], the inhibition at 10 µM in test [1] is 98%; in test [2] it was 97%.

For `O=C(c1ccc2c(c1)CN(S(=O)(=O)c1ccc(F)c3ccccc13)CC2)N1CCC2(CC1)CCN(c1ccncc1)CC2` [Compound G-56, (2-(4-Fluoronaphthalin-1-ylsulfonyl)-1,2,3,4-tetrahydroisoquinolin-7-yl)(9-(pyridin-4-yl)-3,9-diazaspiro[5.5]undecan-3-yl)methanone], the inhibition at 10 µM in test [1] turned out to be 90%; in test [2], 87%.

`COc1ccc2c(Cl)c(C(=O)N3CCc4ccc(C(=O)N5CCC6(CC5)CCN(c5ccncc5)CC6)cc4C3)sc2c1` [Compound G-61, (3-Chloro-6-methoxybenzo[b]thiophen-2-yl)(7-(9-(pyridin-4-yl)-3,9-diazaspiro[5.5]undecane-3-carbonyl)-3,4-dihydroisoquinolin-2(1H)-yl)methanone]: the inhibition at 10 µM in test [1] turned out to be 91%; in test [2], 77%.

Turning to `O=C(Nc1ccc(Cl)c(Cl)c1)N1CCc2onc(C(=O)N3CCC4(CC3)CCN(c3ccncc3)CC4)c2C1` [Compound G-46, N-(3,4-Dichlorophenyl)-3-(9-(pyridin-4-yl)-3,9-diazaspiro[5.5]undecane-3-carbonyl)-6,7-dihydroisoxazolo[4,5-c]pyridine-5(4H)-carboxamide], the inhibition at 10 µM in test [1] turned out to be 57%; in test [2] it was 35%.
